# Tested on: MDA-MB-468 spheroids with HUVEC/MSC, viability
# Assay: Anticancer human tumor MDA-MB-468 cell line growth inhibition [PI3K];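 further: spheroids exposed to agents for seven days before readout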;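 on viability, T/C: 100% = DMSO vehicle control viability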
# Settings: for IC50: curve of first compound; for viability, T/C: stronger effect = lower value
# Outline: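 Tumor cells were combined with HUVEC and MSCs into spheroids, then dosed with PI3K-inhibitor combinations over half-log ranges capped near clinical Cmax or 10 microM.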
# [1] = second compound 0.0316 µM, first compound 0.000316 µM
# [2] = second compound 0.0316 µM, first compound 0.001 µM
# [3] = second compound 0.0316 µM, first compound 0.00316 µM
# [4] = second compound 0.0316 µM, first compound 0.01 µM
# [5] = second compound 0.0316 µM, first compound 0.0316 µM
# [6] = second compound 0.0316 µM, first compound 0.1 µM
# [7] = second compound 0.1 µM, first compound 0.000316 µM
# [8] = second compound 0.1 µM, first compound 0.001 µM
# [9] = second compound 0.1 µM, first compound 0.00316 µM
# [10] = second compound 0.1 µM, first compound 0.01 µM
# [11] = second compound 0.1 µM, first compound 0.0316 µM
# [12] = second compound 0.1 µM, first compound 0.1 µM
# [13] = second compound 0.316 µM, first compound 0.000316 µM
# [14] = second compound 0.316 µM, first compound 0.001 µM
# [15] = second compound 0.316 µM, first compound 0.00316 µM
# [16] = second compound 0.316 µM, first compound 0.01 µM
# [17] = second compound 0.316 µM, first compound 0.0316 µM
# [18] = second compound 0.316 µM, first compound 0.1 µM
# [19] = second compound 1 µM, first compound 0.000316 µM
# [20] = second compound 1 µM, first compound 0.001 µM
# [21] = second compound 1 µM, first compound 0.00316 µM
# [22] = second compound 1 µM, first compound 0.01 µM
# [23] = second compound 1 µM, first compound 0.0316 µM
# [24] = second compound 1 µM, first compound 0.1 µM
# [25] = second compound 3.16 µM, first compound 0.000316 µM
# [26] = second compound 3.16 µM, first compound 0.001 µM
# [27] = second compound 3.16 µM, first compound 0.00316 µM
# [28] = second compound 3.16 µM, first compound 0.01 µM
# [29] = second compound 3.16 µM, first compound 0.0316 µM
# [30] = second compound 3.16 µM, first compound 0.1 µM
# [31] = second compound 10 µM, first compound 0.000316 µM
# [32] = second compound 10 µM, first compound 0.001 µM
# [33] = second compound 10 µM, first compound 0.00316 µM
# [34] = second compound 10 µM, first compound 0.01 µM
# [35] = second compound 10 µM, first compound 0.0316 µM
# [36] = second compound 10 µM, first compound 0.1 µM
# [37] = second compound 0.0316 µM, first compound 0.316 µM
# [38] = second compound 0.0316 µM, first compound 1 µM
# [39] = second compound 0.0316 µM, first compound 3.16 µM
# [40] = second compound 0.0316 µM, first compound 10 µM
# [41] = second compound 0.1 µM, first compound 0.316 µM
# [42] = second compound 0.1 µM, first compound 1 µM
# [43] = second compound 0.1 µM, first compound 3.16 µM
# [44] = second compound 0.1 µM, first compound 10 µM
# [45] = second compound 0.316 µM, first compound 0.316 µM
# [46] = second compound 0.316 µM, first compound 1 µM
# [47] = second compound 0.316 µM, first compound 3.16 µM
# [48] = second compound 0.316 µM, first compound 10 µM
# [49] = second compound 1 µM, first compound 0.316 µM
# [50] = second compound 1 µM, first compound 1 µM
# [51] = second compound 1 µM, first compound 3.16 µM
# [52] = second compound 1 µM, first compound 10 µM
smiles,measurement,setting,value
CC(=O)c1c(C)c2cnc(Nc3ccc(N4CCNCC4)cn3)nc2n(C2CCCC2)c1=O + CC(Nc1ncnc2nc[nH]c12)c1cc2cccc(Cl)c2c(=O)n1-c1ccccc1,IC50,second compound 0.0316 µM,> 100 nM
same,IC50,second compound 0.1 µM,> 100 nM
same,IC50,second compound 0.316 µM,> 100 nM
same,IC50,second compound 1 µM,> 100 nM
same,IC50,second compound 3.16 µM,> 100 nM
same,IC50,second compound 10 µM,< 0.316 nM
same,"viability, T/C",[1],92.6%
same,"viability, T/C",[2],93.9%
same,"viability, T/C",[3],84.6%
same,"viability, T/C",[4],103%
same,"viability, T/C",[5],99.7%
same,"viability, T/C",[6],88.1%
same,"viability, T/C",[7],88.6%
same,"viability, T/C",[8],91.2%
same,"viability, T/C",[9],84.1%
same,"viability, T/C",[10],92.7%
same,"viability, T/C",[11],80%
same,"viability, T/C",[12],86.4%
same,"viability, T/C",[13],84.7%
same,"viability, T/C",[14],78.9%
same,"viability, T/C",[15],81.3%
same,"viability, T/C",[16],72.8%
same,"viability, T/C",[17],90%
same,"viability, T/C",[18],78.5%
same,"viability, T/C",[19],66.4%
same,"viability, T/C",[20],71.4%
same,"viability, T/C",[21],59.3%
same,"viability, T/C",[22],83.3%
same,"viability, T/C",[23],76.2%
same,"viability, T/C",[24],62.8%
same,"viability, T/C",[25],59.6%
same,"viability, T/C",[26],53.1%
same,"viability, T/C",[27],62.3%
same,"viability, T/C",[28],58.1%
same,"viability, T/C",[29],67.2%
same,"viability, T/C",[30],58.8%
same,"viability, T/C",[31],38.9%
same,"viability, T/C",[32],38.5%
same,"viability, T/C",[33],39.3%
same,"viability, T/C",[34],46.7%
same,"viability, T/C",[35],45.7%
same,"viability, T/C",[36],46.1%
CC(C)NCC(C(=O)N1CCN(c2ncnc3c2C(C)CC3O)CC1)c1ccc(Cl)cc1 (stereo not drawn) + CC(Nc1ncnc2nc[nH]c12)c1cc2cccc(Cl)c2c(=O)n1-c1ccccc1,IC50,second compound 0.0316 µM,1170 nM
same,IC50,second compound 0.1 µM,1010 nM
same,IC50,second compound 0.316 µM,1220 nM
same,IC50,second compound 1 µM,654 nM
same,IC50,second compound 3.16 µM,260 nM
same,IC50,second compound 10 µM,< 31.6 nM
same,"viability, T/C",[5],97.6%
same,"viability, T/C",[6],86.2%
same,"viability, T/C",[37],76.4%
same,"viability, T/C",[38],50.4%
same,"viability, T/C",[39],36%
same,"viability, T/C",[40],25.7%
same,"viability, T/C",[11],78.1%
same,"viability, T/C",[12],87.9%
same,"viability, T/C",[41],77.5%
same,"viability, T/C",[42],48.3%
same,"viability, T/C",[43],38.5%
same,"viability, T/C",[44],25.8%
same,"viability, T/C",[17],73.1%
same,"viability, T/C",[18],80.2%
same,"viability, T/C",[45],76.9%
same,"viability, T/C",[46],51.2%
same,"viability, T/C",[47],38.5%
same,"viability, T/C",[48],27.4%
same,"viability, T/C",[23],72.2%
same,"viability, T/C",[24],64.9%
same,"viability, T/C",[49],59.1%
same,"viability, T/C",[50],46.4%
same,"viability, T/C",[51],29.9%
same,"viability, T/C",[52],27%
same,"viability, T/C",[29],57.5%
same,"viability, T/C",[30],57.7%
same,"viability, T/C","second compound 3.16 µM, first compound 0.316 µM",47%
same,"viability, T/C","second compound 3.16 µM, first compound 1 µM",40.8%
same,"viability, T/C","second compound 3.16 µM, first compound 3.16 µM",32.6%
same,"viability, T/C","second compound 3.16 µM, first compound 10 µM",25.6%
same,"viability, T/C",[35],46.4%
same,"viability, T/C",[36],41.2%
same,"viability, T/C","second compound 10 µM, first compound 0.316 µM",42.2%
same,"viability, T/C","second compound 10 µM, first compound 1 µM",34.7%
same,"viability, T/C","second compound 10 µM, first compound 3.16 µM",26.4%
same,"viability, T/C","second compound 10 µM, first compound 10 µM",21.4%
CC1(C)CCC(CN2CCN(c3ccc(C(=O)NS(=O)(=O)c4ccc(NCC5CCOCC5)c([N+](=O)[O-])c4)c(Oc4cnc5[nH]ccc5c4)c3)CC2)=C(c2ccc(Cl)cc2)C1 + CC(Nc1ccc2c(c1)OCCn1cc(N3C(=O)OCC3C(F)F)nc1-2)C(N)=O,IC50,second compound 0.00316 µM,4860 nM
same,IC50,second compound 0.01 µM,5030 nM
same,IC50,second compound 0.0316 µM,4300 nM
same,IC50,second compound 0.1 µM,4320 nM
same,IC50,second compound 0.316 µM,3630 nM
same,IC50,second compound 1 µM,3480 nM
same,"viability, T/C","second compound 0.00316 µM, first compound 0.0316 µM",94.2%
same,"viability, T/C","second compound 0.00316 µM, first compound 0.1 µM",99.9%
same,"viability, T/C","second compound 0.00316 µM, first compound 0.316 µM",82.1%
same,"viability, T/C","second compound 0.00316 µM, first compound 1 µM",91.6%
same,"viability, T/C","second compound 0.00316 µM, first compound 3.16 µM",74.4%
same,"viability, T/C","second compound 0.00316 µM, first compound 10 µM",8.95%
same,"viability, T/C","second compound 0.01 µM, first compound 0.0316 µM",91.8%
same,"viability, T/C","second compound 0.01 µM, first compound 0.1 µM",108%
same,"viability, T/C","second compound 0.01 µM, first compound 0.316 µM",90.1%
same,"viability, T/C","second compound 0.01 µM, first compound 1 µM",108%
same,"viability, T/C","second compound 0.01 µM, first compound 3.16 µM",77.5%
same,"viability, T/C","second compound 0.01 µM, first compound 10 µM",9.38%
same,"viability, T/C",[5],97.6%
same,"viability, T/C",[6],89.3%
same,"viability, T/C",[37],71.6%
same,"viability, T/C",[38],94.6%
same,"viability, T/C",[39],64.6%
same,"viability, T/C",[40],9.45%
same,"viability, T/C",[11],97.9%
same,"viability, T/C",[12],95.7%
same,"viability, T/C",[41],83.4%
same,"viability, T/C",[42],83.8%
same,"viability, T/C",[43],67.2%
same,"viability, T/C",[44],10%
same,"viability, T/C",[17],89.6%
same,"viability, T/C",[18],74.7%
same,"viability, T/C",[45],96%
same,"viability, T/C",[46],76.5%
same,"viability, T/C",[47],56.2%
same,"viability, T/C",[48],8.04%
same,"viability, T/C",[23],80.6%
same,"viability, T/C",[24],79.8%
same,"viability, T/C",[49],79.6%
same,"viability, T/C",[50],90%
same,"viability, T/C",[51],53.8%
same,"viability, T/C",[52],9.1%
CC(C)n1nc(-c2ccc3oc(N)nc3c2)c2c(N)ncnc21 + CC(Nc1ncnc2nc[nH]c12)c1cc2cccc(Cl)c2c(=O)n1-c1ccccc1,IC50,second compound 0.0316 µM,41.9 nM
same,IC50,second compound 0.1 µM,34.5 nM
same,IC50,second compound 0.316 µM,37.9 nM
same,IC50,second compound 1 µM,24 nM
same,IC50,second compound 3.16 µM,11.3 nM
same,IC50,second compound 10 µM,< 0.316 nM
same,"viability, T/C",[1],81.5%
same,"viability, T/C",[2],81.4%
same,"viability, T/C",[3],96.1%
same,"viability, T/C",[4],82.2%
same,"viability, T/C",[5],60%
same,"viability, T/C",[6],19.5%
same,"viability, T/C",[7],77.6%
same,"viability, T/C",[8],91.5%
same,"viability, T/C",[9],77.9%
same,"viability, T/C",[10],66%
same,"viability, T/C",[11],54.4%
same,"viability, T/C",[12],19.8%
same,"viability, T/C",[13],91.6%
same,"viability, T/C",[14],59.7%
same,"viability, T/C",[15],77.4%
same,"viability, T/C",[16],73.8%
same,"viability, T/C",[17],55.2%
same,"viability, T/C",[18],17.4%
same,"viability, T/C",[19],69.3%
same,"viability, T/C",[20],68.4%
same,"viability, T/C",[21],64.1%
same,"viability, T/C",[22],57%
same,"viability, T/C",[23],49.6%
same,"viability, T/C",[24],15.8%
same,"viability, T/C",[25],50.2%
same,"viability, T/C",[26],54.8%
same,"viability, T/C",[27],57.4%
same,"viability, T/C",[28],50.9%
same,"viability, T/C",[29],36.2%
same,"viability, T/C",[30],13.2%
same,"viability, T/C",[31],41.5%
same,"viability, T/C",[32],39.7%
same,"viability, T/C",[33],38.8%
same,"viability, T/C",[34],40%
same,"viability, T/C",[35],26.4%
same,"viability, T/C",[36],9.66%
